Patent US10131652B2, “Pyrimidinyloxy benzene derivatives as herbicides” (E. I. DU PONT DE NEMOURS AND COMPANY, priority 2014, dated 2018)

Assays:
Assay in all cases: Test F pre-/postemergence plant response
Format in all cases: in vivo
Settings in all cases: scale 0 to 100
[1] = system: waterhemp (common waterhemp, Amaranthus rudis)
Procedure, shortened: (§1)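 In a greenhouse, compounds carried in a non-phytotoxic surfactant-containing solvent mixture were applied to soil at planting and to young 1- to 4-leaf plants. About two to three weeks (14 to 21 days) afterward, each species was compared with controls and rated visually from 0 to 100.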

[2] = system: nightshade (eastern black nightshade, Solanum ptycanthum)
Procedure, shortened: as §1

[3] = system: yellow nutsedge (Cyperus esculentus)
Procedure, shortened: as §1

[4] = system: barnyardgrass (Echinochloa crus-galli)
Procedure, shortened: as §1

[5] = system: wild poinsettia (Euphorbia heterophylla)
Procedure, shortened: as §1

[6] = system: Italian ryegrass (Lolium multiflorum)
Procedure, shortened: as §1

[7] = system: lambsquarters (Chenopodium album)
Procedure, shortened: as §1

[8] = system: ragweed (common ragweed, Ambrosia elatior)
Procedure, shortened: as §1

[9] = system: large (Lg) crabgrass (Digitaria sanguinalis)
Procedure, shortened: as §1

[10] = system: Brazilian crabgrass (Digitaria horizontalis)
Procedure, shortened: as §1

[11] = system: morningglory (Ipomoea coccinea)
Procedure, shortened: as §1

[12] = system: green foxtail (Setaria viridis)
Procedure, shortened: as §1

[13] = system: johnsongrass (Sorghum halepense)
Procedure, shortened: as §1

[14] = system: dayflower (Virginia (VA) dayflower, Commelina virginica)
Procedure, shortened: as §1

[15] = system: sandbur (southern sandbur, Cenchrus echinatus)
Procedure, shortened: as §1

[16] = system: hairy beggarticks (Bidens pilosa)
Procedure, shortened: as §1

FC(F)c1cc(-c2c(Cl)cccc2Oc2ncc(Cl)cn2)no1 [Compound 179]
95: Plant response rating, Waterhemp ([1]; 16 g ai/ha Preemergence) | Plant response rating, Waterhemp ([1]; 31 g ai/ha Postemergence) | Plant response rating, Waterhemp ([1]; 31 g ai/ha Preemergence) | Plant response rating, Waterhemp ([1]; 62 g ai/ha Postemergence)
40: Plant response rating, Ragweed ([8]; 31 g ai/ha Postemergence) | Plant response rating, Ragweed ([8]; 62 g ai/ha Postemergence) | Plant response rating, Beggarticks ([16]; 62 g ai/ha Postemergence)
100: Plant response rating, Waterhemp ([1]; 125 g ai/ha Postemergence) | Plant response rating, Waterhemp ([1]; 125 g ai/ha Preemergence) | Plant response rating, Waterhemp ([1]; Preemergence) | Plant response rating, Nightshade ([2]; 125 g ai/ha Preemergence) | Plant response rating, Nightshade ([2]; Preemergence) | Plant response rating, Lambsquarters ([7]; 31 g ai/ha Preemergence) | Plant response rating, Lambsquarters ([7]; 125 g ai/ha Preemergence) | Plant response rating, Lambsquarters ([7]; Preemergence)
35: Plant response rating, Poinsettia, Wild ([5]; 125 g ai/ha Postemergence) | Plant response rating, Crabgrass, Large ([9]; 62 g ai/ha Preemergence) | Plant response rating, Morningglory ([11]; Preemergence) | Plant response rating, Dayflower, VA ([14]; 62 g ai/ha Preemergence)
10: Plant response rating, Ryegrass, Italian ([6]; 125 g ai/ha Preemergence) | Plant response rating, Crabgrass, Brazil ([10]; 16 g ai/ha Postemergence) | Plant response rating, Johnsongrass ([13]; 125 g ai/ha Preemergence) | Plant response rating, Johnsongrass ([13]; Preemergence) | Plant response rating, Sandbur ([15]; 125 g ai/ha Postemergence)
15: Plant response rating, Poinsettia, Wild ([5]; 16 g ai/ha Postemergence) | Plant response rating, Poinsettia, Wild ([5]; 31 g ai/ha Postemergence) | Plant response rating, Crabgrass, Brazil ([10]; 62 g ai/ha Preemergence) | Plant response rating, Foxtail, Green ([12]; 125 g ai/ha Preemergence)
45: Plant response rating, Ragweed ([8]; 16 g ai/ha Postemergence)
60: Plant response rating, Crabgrass, Large ([9]; 125 g ai/ha Preemergence)
85: Plant response rating, Dayflower, VA ([14]; 125 g ai/ha Preemergence)
98: Plant response rating, Lambsquarters ([7]; 16 g ai/ha Preemergence)
65: Plant response rating, Nightshade ([2]; 31 g ai/ha Preemergence)
70: Plant response rating, Waterhemp ([1]; 16 g ai/ha Postemergence)
50: Plant response rating, Ragweed ([8]; 125 g ai/ha Postemergence) | Plant response rating, Beggarticks ([16]; 31 g ai/ha Postemergence) | Plant response rating, Beggarticks ([16]; 125 g ai/ha Postemergence)
0: Plant response rating, Nutsedge, Yellow ([3]; 16 g ai/ha Preemergence) | Plant response rating, Nutsedge, Yellow ([3]; 31 g ai/ha Preemergence) | Plant response rating, Nutsedge, Yellow ([3]; 125 g ai/ha Preemergence) | Plant response rating, Nutsedge, Yellow ([3]; Preemergence) | Plant response rating, Barnyardgrass ([4]; 16 g ai/ha Postemergence) | Plant response rating, Barnyardgrass ([4]; 16 g ai/ha Preemergence) | Plant response rating, Barnyardgrass ([4]; 31 g ai/ha Postemergence) | Plant response rating, Barnyardgrass ([4]; 31 g ai/ha Preemergence) | Plant response rating, Barnyardgrass ([4]; 62 g ai/ha Postemergence) | Plant response rating, Barnyardgrass ([4]; 62 g ai/ha Preemergence) | Plant response rating, Barnyardgrass ([4]; 125 g ai/ha Postemergence) | Plant response rating, Poinsettia, Wild ([5]; 16 g ai/ha Preemergence) | Plant response rating, Poinsettia, Wild ([5]; 31 g ai/ha Preemergence) | Plant response rating, Poinsettia, Wild ([5]; 125 g ai/ha Preemergence) | Plant response rating, Poinsettia, Wild ([5]; Preemergence) | Plant response rating, Ryegrass, Italian ([6]; 16 g ai/ha Postemergence) | Plant response rating, Ryegrass, Italian ([6]; 16 g ai/ha Preemergence) | Plant response rating, Ryegrass, Italian ([6]; 31 g ai/ha Postemergence) | Plant response rating, Ryegrass, Italian ([6]; 31 g ai/ha Preemergence) | Plant response rating, Ryegrass, Italian ([6]; 62 g ai/ha Postemergence) | Plant response rating, Ryegrass, Italian ([6]; 125 g ai/ha Postemergence) | Plant response rating, Ryegrass, Italian ([6]; Preemergence) | Plant response rating, Ragweed ([8]; 16 g ai/ha Preemergence) | Plant response rating, Ragweed ([8]; 31 g ai/ha Preemergence) | Plant response rating, Ragweed ([8]; 125 g ai/ha Preemergence) | Plant response rating, Ragweed ([8]; Preemergence) | Plant response rating, Crabgrass, Large ([9]; 16 g ai/ha Preemergence) | Plant response rating, Crabgrass, Large ([9]; 31 g ai/ha Preemergence) | Plant response rating, Crabgrass, Brazil ([10]; 16 g ai/ha Preemergence) | Plant response rating, Crabgrass, Brazil ([10]; 31 g ai/ha Preemergence) | Plant response rating, Morningglory ([11]; 16 g ai/ha Preemergence) | Plant response rating, Morningglory ([11]; 31 g ai/ha Preemergence) | Plant response rating, Foxtail, Green ([12]; 16 g ai/ha Preemergence) | Plant response rating, Foxtail, Green ([12]; 31 g ai/ha Preemergence) | Plant response rating, Foxtail, Green ([12]; Preemergence) | Plant response rating, Johnsongrass ([13]; 16 g ai/ha Preemergence) | Plant response rating, Johnsongrass ([13]; 31 g ai/ha Preemergence) | Plant response rating, Dayflower, VA ([14]; 16 g ai/ha Preemergence) | Plant response rating, Dayflower, VA ([14]; 31 g ai/ha Preemergence) | Plant response rating, Sandbur ([15]; 16 g ai/ha Postemergence) | Plant response rating, Sandbur ([15]; 16 g ai/ha Preemergence) | Plant response rating, Sandbur ([15]; 31 g ai/ha Postemergence) | Plant response rating, Sandbur ([15]; 31 g ai/ha Preemergence) | Plant response rating, Sandbur ([15]; 125 g ai/ha Preemergence) | Plant response rating, Sandbur ([15]; Preemergence) | Plant response rating, Beggarticks ([16]; 16 g ai/ha Preemergence) | Plant response rating, Beggarticks ([16]; 31 g ai/ha Preemergence) | Plant response rating, Beggarticks ([16]; 62 g ai/ha Preemergence) | Plant response rating, Beggarticks ([16]; 125 g ai/ha Preemergence)
25: Plant response rating, Crabgrass, Brazil ([10]; 125 g ai/ha Preemergence) | Plant response rating, Morningglory ([11]; 125 g ai/ha Preemergence)
5: Plant response rating, Barnyardgrass ([4]; 125 g ai/ha Preemergence) | Plant response rating, Sandbur ([15]; 62 g ai/ha Postemergence)
30: Plant response rating, Crabgrass, Brazil ([10]; 125 g ai/ha Postemergence)
20: Plant response rating, Poinsettia, Wild ([5]; 62 g ai/ha Postemergence) | Plant response rating, Crabgrass, Brazil ([10]; 31 g ai/ha Postemergence) | Plant response rating, Crabgrass, Brazil ([10]; 62 g ai/ha Postemergence) | Plant response rating, Beggarticks ([16]; 16 g ai/ha Postemergence)
